Assay results as given in patent US11491122B2, “Use of a combination of Adelmidrol and hyaluronic acid in the treatment of pain caused by osteoarthritis and epithelial dysfunctions” (Epitech Group S.p.A., priority 2014, dated 2022).

Experiments:
HaCaT cells = assay: Endogenous levels of AEA, 2-AG, PEA and OEA in HaCaT cells stimulated with Adelmidrol (LC-APCI-MS); format: cell-based, human; conditions: Adelmidrol 10 μM, 24 hours
Experimental: Cultured human keratinocytes, HaCaT, were grown in DMEM (Dulbecco's Modified Eagle Medium) supplemented with glutamine (2 mM), penicillin (400 U/ml), streptomycin ([…]), 10% FBS (Fetal Bovine Serum), in the presence of 5% CO2 and at 37° C. Thereafter, cells plated in 6-well multi-wells (9×10^5/well), once 70% confluence had been reached, were stimulated with Adelmidrol, 10 μM, or carrier (Ctrl, 0.05% methanol) for 24 hours in the presence of 5% CO2 at 37° C. After 24 hours, the cells and the surnatants were homogenized in 5 vol. of a chloroform/methanol TRIS-HCl 50 mM pH 7.4 (2:1:1) solution containing 10 pmol of [^2H]8anandamide (AEA) and 50 pmol of [^2H]52-arachidonoylglycerol (2-AG), [^2H]4palmitoylethanolamide (PEA) and [^2H]2oleoylethanolamide (OEA) (Bisogno et al., 1997). The organic-lipidic phase obtained from the four extractions with chloroform was subjected to purification by silica column chromatography, eluted by increasing concentrations of methanol in chloroform. The chloroform/methanol 90:10 fraction containing AEA, 2-AG, PEA and OEA was analyzed by liquid chromatography coupled to mass spectrometry using chemical ionization at atmospheric pressure (LC-APCI-MS) (Marsicano et al., 2002). The equipment used includes a Shimadzu HPLC (LC-10ADVP) coupled with a Shimadzu spectrometer (LCMS-2010) via a Shimadzu APCI interface. The ionization source temperature is 400° C. and a Phenomenex reverse phase HPLC column (C-18, 5 microns, 150×4.6 mm) is used. The mobile phase, consisting of a mixture of methanol/water/acetic acid (85/15/0.1%), passes through the column at a rate of 1 ml/min. The mass spectrum determination is carried out according to the selected ion monitoring (SIM) [Di Marzo et al. Nature 2001; 410:822-825]. Selected ions correspond to mass/charge values (m/z) of 356 and 348 (molecular ions of deuterated and non-deuterated AEA), 384.35 and 379.35 (molecular ions of deuterated and non-deuterated 2-AG), 304 and 300 (molecular ions of deuterated and non-deuterated PEA), 328 and 326 (molecular ions of deuterated and non-deuterated OEA). The quantity expressed as pmol/mg of lipid extract were compared using ANOVA followed by the Student-Newman-Keuls test.

[1] = experimental animals, oral administration; cited from earlier work
FAAH = molecular target: T1, FAAH (Rattus norvegicus, UniProt P97612); assay: Maximum reduction of the activity of the PEA-degrading enzyme FAAH, rat brain membrane homogenates; format: biochemical
T1 construct: was also measured using homogenates rat brain membranes; from tissue; host or cells: rat brain membrane homogenates
T1 sequence (P97612 1-579): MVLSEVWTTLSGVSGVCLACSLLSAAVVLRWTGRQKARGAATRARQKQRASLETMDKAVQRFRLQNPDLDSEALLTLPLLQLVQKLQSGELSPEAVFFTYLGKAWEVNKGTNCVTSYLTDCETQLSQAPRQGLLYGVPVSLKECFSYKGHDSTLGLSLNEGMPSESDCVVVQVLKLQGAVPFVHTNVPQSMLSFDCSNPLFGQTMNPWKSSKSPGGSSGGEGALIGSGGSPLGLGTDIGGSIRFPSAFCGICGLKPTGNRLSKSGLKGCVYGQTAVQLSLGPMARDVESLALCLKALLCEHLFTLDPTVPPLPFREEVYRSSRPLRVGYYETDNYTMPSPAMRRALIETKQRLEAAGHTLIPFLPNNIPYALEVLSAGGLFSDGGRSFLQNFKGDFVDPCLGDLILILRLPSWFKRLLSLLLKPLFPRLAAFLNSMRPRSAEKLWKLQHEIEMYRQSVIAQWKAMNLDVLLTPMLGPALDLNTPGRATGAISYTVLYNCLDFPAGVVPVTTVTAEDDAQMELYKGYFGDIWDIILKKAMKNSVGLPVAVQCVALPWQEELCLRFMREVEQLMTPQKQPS
Experimental: (§1) The maximum reduction of the activity of the palmitoylethanolamide-degrading enzymes (NAAA and FAAH) was also measured using homogenates rat brain membranes [Ueda N et al Chem Phys Lipids. 2000 November; 108(1-2):107-21; Tsuboi K. Et al J Biol Chem. 2005 March 25; 280(12):11082-92].

NAAA = molecular target: T2, NAAA (Rattus norvegicus, UniProt Q5KTC7); assay: Maximum reduction of the activity of the PEA-degrading enzyme NAAA, rat brain membrane homogenates; format: biochemical
T2 construct: was also measured using homogenates rat brain membranes; from tissue; host or cells: rat brain membrane homogenates
T2 sequence (Q5KTC7 131-362 limits assumed): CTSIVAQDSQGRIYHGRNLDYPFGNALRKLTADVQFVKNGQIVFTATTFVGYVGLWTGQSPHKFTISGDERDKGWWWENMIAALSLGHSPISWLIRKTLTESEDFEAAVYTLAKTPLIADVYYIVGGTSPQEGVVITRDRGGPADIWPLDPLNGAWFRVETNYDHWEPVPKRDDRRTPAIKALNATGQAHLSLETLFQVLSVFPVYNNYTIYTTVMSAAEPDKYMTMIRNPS
T2 sequence (Q5KTC7 34-130 limits assumed): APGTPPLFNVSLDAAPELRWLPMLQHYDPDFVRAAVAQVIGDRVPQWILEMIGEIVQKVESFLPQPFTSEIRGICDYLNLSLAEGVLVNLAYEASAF
Experimental: as §1

TNF-α = assay: Osteoarthritis induced by sodium monoiodoacetate: TNF-α in the synovial fluid (ELISA); format: in vivo, rat; conditions: intra-articular Adelmidrol, MIA osteoarthritic rats
Experimental: (§2) The experiments were conducted using adult male rats of the Wistar strain (weight 200-250 grams) supplied by Harlan Italy, put in enclosures for a week in standard dietary and environmental conditions (temperature 21±1° C., humidity 60±10%, light 12 hours a day and water and food ad libitum) before being used in the experiments. […] MIA acts locally by inhibiting glycolysis, destroying the metabolism of chondrocytes and producing cartilage degeneration. At the time of the induction of osteoarthritis, MIA was dissolved in sterile saline. Before carrying out the intra-articular administration, the rats were anesthetized with pentobarbital sodium dissolved in saline at the dose of 60 mg/kg, in an administration volume of 0.2 ml/hg intraperitoneally (i.p.). The animals that received the MIA injection in their right knee represent the osteoarthritic (OA) group. […]
The determination of TNF-α levels in the synovial fluid was made using an ELISA (Enzyme Linked Immuno-Sorbent-Assay) immunoenzymatic assay using a commercial kit from Biosource International Inc. The method uses a procedure in which the antigen is trapped between two layers of antibodies and for this reason it is called an ELISA sandwich. […] Following the enzymatic reaction, a product is generated whose staining intensity is measured spectrophotometrically and is directly proportional to the concentration of TNF-α in the samples. […]

[2] = test system: patients with Bladder Pain Syndrome (BPS); assay: Intravesical instillation in patients with Painful Bladder Syndrome (BPS); format: in vivo, human; conditions: 7 female BPS patients
Experimental: A sterile solution containing 2% Adelmidrol and 0.1% hyaluronic acid sodium salt was instilled into the bladder of no. 7 female patients through catheter after the complete emptying of the bladder itself. […] Most of the times, the patients had comorbidity with other pelvic diseases (vulvar vestibulitis 4/7; IBS (irritable bowel syndrome) 2/7; Fibromyalgia Syndrome 1/7, Recurrent Urinary Tract Infections (RUTI) 3/7).
Treatments were carried out as attack therapy (one intravesical instillation per week for 8 weeks), followed by maintenance therapy (one instillation per month for 6 months).
Using a dedicated diary, the frequency of urination (measured as the number of urinations in 12 hours), both during the day and at night, and the discomfort with bladder full were controlled, analyzing the pain, the feeling of weight and the burning in the pelvic area (all three parameters were measured by means of numerical scale VAS, before treatment, at the end of the attack therapy and at the end of the maintenance therapy).

[3] = test system: knee osteoarthritis induced by monosodium iodoacetate (MIA); assay: Osteoarthritis induced by sodium monoiodoacetate: knee edema by digital caliper; format: in vivo, rat; conditions: intra-articular Adelmidrol 1.5, 15 and 150 μg/injection, days 1, 8, 15; dose-dependent, evident at all analyzed times
Experimental: as §2, with “(i.p.).” for “(i.p.). The animals that received the MIA injection in their right knee represent the osteoarthritic (OA) group.”
In order to evaluate the formation of the edema in the right knee of the animals after MIA injection, a digital manual slide caliper (measuring capacity 0-150 mm; resolution: 0.01 mm; ROHS Compliant Electronic Digital Caliper—2 Biological Instruments SNC, Italy) was used. […] The edema was calculated as the difference between the […] of the right knee and left knee. […]
The various parameters are measured at different times in relation to the parameter itself (e.g. inflammatory parameters are evaluated only in the first week since the MIA, pain is always evaluated before and 60 min. after the administration of Adelmidrol).

[4] = cited from earlier work

SMILES: O=C(CCCCCCCC(=O)NCCO)NCCO [Adelmidrol, N,N′-Bis(2-hydroxyethyl)nonandiamide]
- levels of 2-AG in HaCaT cells (HaCaT cells; vs Ctrl): No significant variation
- levels of AEA in HaCaT cells (HaCaT cells; vs Ctrl): No significant variation
- levels of OEA in HaCaT cells (HaCaT cells; vs Ctrl): No significant variation
- levels of PEA in HaCaT cells (HaCaT cells; basal values 31.6±5.6, n=6, P<0.0001): 66.4±9.6 pmol/mg of lipid extract
- LD50 [1]: 2-3 g/kg body weight
- inhibition of the activity of FAAH (in words) (FAAH): does not inhibit
- inhibition at 50 µM (FAAH; Treatment with Adelmidrol 50 μM, Control 21.22 ± 3.18%, read-out: Maximum inhibition of the enzymatic activity (expressed as IC50), Enzyme FAAH): 20.1 ± 4.12%
- inhibition of the activity of NAAA (in words) (NAAA): does not inhibit
- inhibition at 50 µM (NAAA; Treatment with Adelmidrol 50 μM, Control 11.43 ± 1.72%, read-out: Maximum inhibition of the enzymatic activity (expressed as IC50), Enzyme NAAA): 11.3 ± 2.26%
- levels of TNF-α in the synovial fluid (TNF-α): reduction
- all the parameters evaluated (urination frequency, pain, weight, burning) after treatment [2]: marked improvement
- anti-inflammatory effect (knee edema) [3]: strong anti-inflammatory effect
- solubility in lipids [4]: good solubility in lipids
- solubility in water [4]: high solubility in water
